{
  "source": "patent US12215173B2",
  "about": "“Kappa opioid receptor peptide amide ligands” (priority 2019, dated 2025)",
  "key": {"[1]": {"biological_target": "recombinant human mu (MOR) opioid receptor (Homo sapiens (Human), UniProt P35372)", "experiment": "Opioid receptor radioligand binding assay, MOR"}, "[2]": {"biological_target": "recombinant human delta (DOR) opioid receptor (Homo sapiens (Human), UniProt P41143)", "sequence (P41143 whole entry, looked up)": "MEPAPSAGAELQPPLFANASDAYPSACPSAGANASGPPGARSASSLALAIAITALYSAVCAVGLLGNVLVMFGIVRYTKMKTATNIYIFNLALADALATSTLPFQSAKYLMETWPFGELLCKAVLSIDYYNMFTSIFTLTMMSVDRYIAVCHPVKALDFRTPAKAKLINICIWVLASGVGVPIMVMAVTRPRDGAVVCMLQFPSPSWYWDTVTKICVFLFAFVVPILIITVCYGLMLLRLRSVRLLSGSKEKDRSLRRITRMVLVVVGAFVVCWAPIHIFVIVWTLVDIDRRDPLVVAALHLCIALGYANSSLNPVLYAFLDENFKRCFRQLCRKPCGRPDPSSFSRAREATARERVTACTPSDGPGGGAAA", "experiment": "Opioid receptor radioligand binding assay, DOR"}, "[3]": {"biological_target": "recombinant human kappa (KOR) opioid receptor (Homo sapiens (Human), UniProt P41145)", "experiment": "biochemical", "format": "binding", "settings": "HEK293 cell membranes, 0.5 nM [3H]diprenorphine"}, "[4]": {"biological_target": "Opioid Kappa Receptor (recombinant human, HEK293 cells) (Homo sapiens (Human), UniProt P41145)", "experiment": "cell-based", "settings": "read-out: EC50"}, "[5]": {"settings": "HEK293 cell membranes, 0.5 nM [3H]DAMGO, read-out: MOR, IC50"}, "[6]": {"settings": "HEK293 cell membranes, 0.5 nM [3H]DADLE, read-out: DOR, IC50"}},
  "note": "Read-outs that look alike come from different tables or passages of the source.",
  "data": [
    {"smiles": "CC(C)C[C@@H](NC(=O)[C@@H](Cc1ccccc1)NC(=O)[C@H](N)Cc1ccccc1)C(=O)N[C@H](CCCCN)C(=O)N1CCOCCOCCOCC1", "note": "[Compound 13-15]", "values": [
      {"measurement": "IC50", "setting": "[1]; [5]", "result": "> 10000", "unit": "nM"},
      {"measurement": "IC50", "setting": "[2]; [6]", "result": "> 10000", "unit": "nM"},
      {"measurement": "IC50", "setting": "[3]", "result": 0.41, "unit": "nM"},
      {"measurement": "EC50", "setting": "[4]", "result": 51.5, "unit": "nM"}
    ]},
    {"smiles": "CC(C)C[C@@H](NC(=O)[C@@H](Cc1ccccc1)NC(=O)[C@H](N)Cc1ccccc1)C(=O)N[C@H](CCCCN)C(=O)N1CCC(NC(=O)C(=O)N(C)C)CC1", "note": "[Compound 13-16]", "values": [
      {"measurement": "IC50", "setting": "[1]; [5]", "result": 215, "unit": "nM"},
      {"measurement": "IC50", "setting": "[2]; [6]", "result": 2410, "unit": "nM"},
      {"measurement": "IC50", "setting": "[3]", "result": 0.37, "unit": "nM"},
      {"measurement": "EC50", "setting": "[4]", "result": 19.4, "unit": "nM"}
    ]},
    {"smiles": "CC(C)C[C@@H](NC(=O)[C@@H](Cc1ccccc1)NC(=O)[C@H](N)Cc1ccccc1)C(=O)N[C@H](CCCCN)C(=O)NC1CCN(C(=O)C(=O)N(C)C)CC1", "note": "[Compound 13-17]", "values": [
      {"measurement": "IC50", "setting": "[1]; [5]", "result": "> 10000", "unit": "nM"},
      {"measurement": "IC50", "setting": "[2]; [6]", "result": "> 10000", "unit": "nM"},
      {"measurement": "IC50", "setting": "[3]", "result": 23.4, "unit": "nM"},
      {"measurement": "EC50", "setting": "[4]", "result": 22, "unit": "nM"}
    ]},
    {"smiles": "COC(=O)/C=C/C(=O)N1CCC(NC(=O)[C@@H](CCCCN)NC(=O)[C@@H](CC(C)C)NC(=O)[C@@H](Cc2ccccc2)NC(=O)[C@H](N)Cc2ccccc2)CC1", "note": "[Compound 13-18]", "values": [
      {"measurement": "IC50", "setting": "[1]; [5]", "result": "> 10000", "unit": "nM"},
      {"measurement": "IC50", "setting": "[2]; [6]", "result": "> 10000", "unit": "nM"},
      {"measurement": "IC50", "setting": "[3]", "result": 2, "unit": "nM"},
      {"measurement": "EC50", "setting": "[4]", "result": 39.3, "unit": "nM"}
    ]},
    {"smiles": "COC(=O)/C=C/C(=O)NC1CCN(C(=O)[C@@H](CCCCN)NC(=O)[C@@H](CC(C)C)NC(=O)[C@@H](Cc2ccccc2)NC(=O)[C@H](N)Cc2ccccc2)CC1", "note": "[Compound 13-19]", "values": [
      {"measurement": "IC50", "setting": "[1]; [5]", "result": "> 727", "unit": "nM"},
      {"measurement": "IC50", "setting": "[2]; [6]", "result": "> 10000", "unit": "nM"},
      {"measurement": "IC50", "setting": "[3]", "result": 0.33, "unit": "nM"},
      {"measurement": "EC50", "setting": "[4]", "result": 75.8, "unit": "nM"}
    ]},
    {"smiles": "CC(C)C[C@@H](NC(=O)[C@@H](Cc1ccccc1)NC(=O)[C@H](N)Cc1ccccc1)C(=O)N[C@H](CCCCN)C(=O)N1CCC(NC(=O)/C=C/C(=O)O)CC1", "note": "[Compound 13-20]", "values": [
      {"measurement": "IC50", "setting": "[1]; [5]", "result": "> 10000", "unit": "nM"},
      {"measurement": "IC50", "setting": "[2]; [6]", "result": "> 10000", "unit": "nM"},
      {"measurement": "IC50", "setting": "[3]", "result": 1.44, "unit": "nM"},
      {"measurement": "EC50", "setting": "[4]", "result": 18, "unit": "nM"}
    ]},
    {"smiles": "CC(C)C[C@@H](NC(=O)[C@@H](Cc1ccccc1)NC(=O)[C@H](N)Cc1ccccc1)C(=O)N[C@H](CCCCN)C(=O)N1CCC(NC(=O)C(=O)NC2CC2)CC1", "note": "[Compound 13-22]", "values": [
      {"measurement": "IC50", "setting": "[1]; [5]", "result": "> 10000", "unit": "nM"},
      {"measurement": "IC50", "setting": "[2]; [6]", "result": "> 10000", "unit": "nM"},
      {"measurement": "IC50", "setting": "[3]", "result": 0.096, "unit": "nM"},
      {"measurement": "EC50", "setting": "[4]", "result": 24.8, "unit": "nM"}
    ]},
    {"smiles": "CC(C)C[C@@H](NC(=O)[C@@H](Cc1ccccc1)NC(=O)[C@H](N)Cc1ccccc1)C(=O)N[C@H](CCCCN)C(=O)N1CCN(C(=O)C(=O)NC2CC2)CC1", "note": "[Compound 13-23]", "values": [
      {"measurement": "IC50", "setting": "[1]; [5]", "result": 318, "unit": "nM"},
      {"measurement": "IC50", "setting": "[2]; [6]", "result": "> 10000", "unit": "nM"},
      {"measurement": "IC50", "setting": "[3]", "result": 0.79, "unit": "nM"},
      {"measurement": "EC50", "setting": "[4]", "result": 8.58, "unit": "nM"}
    ]},
    {"smiles": "COC(=O)/C=C/C(=O)N1CCN(C(=O)[C@@H](CCCCN)NC(=O)[C@@H](CC(C)C)NC(=O)[C@@H](Cc2ccccc2)NC(=O)[C@H](N)Cc2ccccc2)CC1", "note": "[Compound 13-24]", "values": [
      {"measurement": "IC50", "setting": "[1]; [5]", "result": 7990, "unit": "nM"},
      {"measurement": "IC50", "setting": "[2]; [6]", "result": "> 10000", "unit": "nM"},
      {"measurement": "IC50", "setting": "[3]", "result": 0.52, "unit": "nM"},
      {"measurement": "EC50", "setting": "[4]", "result": 31.5, "unit": "nM"}
    ]},
    {"smiles": "CC(C)C[C@@H](NC(=O)[C@@H](Cc1ccccc1)NC(=O)[C@H](N)Cc1ccccc1)C(=O)N[C@H](CCCCN)C(=O)N1CCN(C(=O)C(=O)N(C)C)CC1", "note": "[Compound 13-26]", "values": [
      {"measurement": "IC50", "setting": "[1]; [5]", "result": "> 10000", "unit": "nM"},
      {"measurement": "IC50", "setting": "[2]; [6]", "result": "> 10000", "unit": "nM"},
      {"measurement": "IC50", "setting": "[3]", "result": 1.83, "unit": "nM"},
      {"measurement": "EC50", "setting": "[4]", "result": 10.2, "unit": "nM"}
    ]},
    {"smiles": "CNC(=O)C(=O)N1CCN(C(=O)[C@@H](CCCCN)NC(=O)[C@@H](CC(C)C)NC(=O)[C@@H](Cc2ccccc2)NC(=O)[C@H](N)Cc2ccccc2)CC1", "note": "[Compound 13-27]", "values": [
      {"measurement": "IC50", "setting": "[1]; [5]", "result": "> 10000", "unit": "nM"},
      {"measurement": "IC50", "setting": "[2]; [6]", "result": "> 10000", "unit": "nM"},
      {"measurement": "IC50", "setting": "[3]", "result": 0.53, "unit": "nM"},
      {"measurement": "EC50", "setting": "[4]", "result": 12, "unit": "nM"}
    ]},
    {"smiles": "CNC(=O)C(=O)NC1CCN(C(=O)[C@@H](CCCCN)NC(=O)[C@@H](CC(C)C)NC(=O)[C@@H](Cc2ccccc2)NC(=O)[C@H](N)Cc2ccccc2)CC1", "note": "[Compound 13-28]", "values": [
      {"measurement": "IC50", "setting": "[1]; [5]", "result": "> 10000", "unit": "nM"},
      {"measurement": "IC50", "setting": "[2]; [6]", "result": "> 10000", "unit": "nM"},
      {"measurement": "IC50", "setting": "[3]", "result": 0.26, "unit": "nM"},
      {"measurement": "EC50", "setting": "[4]", "result": 20.8, "unit": "nM"}
    ]},
    {"smiles": "COC(=O)C(=O)NC1CCN(C(=O)[C@@H](CCCCN)NC(=O)[C@@H](CC(C)C)NC(=O)[C@@H](Cc2ccccc2)NC(=O)[C@H](N)Cc2ccccc2)CC1", "note": "[Compound 13-29]", "values": [
      {"measurement": "IC50", "setting": "[1]; [5]", "result": 6.86, "unit": "nM"},
      {"measurement": "IC50", "setting": "[2]; [6]", "result": "> 10000", "unit": "nM"},
      {"measurement": "IC50", "setting": "[3]", "result": 0.29, "unit": "nM"},
      {"measurement": "EC50", "setting": "[4]", "result": 15.5, "unit": "nM"}
    ]},
    {"smiles": "CC(C)C[C@@H](NC(=O)[C@@H](Cc1ccccc1)NC(=O)[C@H](N)Cc1ccccc1)C(=O)N[C@H](CCCCN)C(=O)N1CCC(NC(=O)C(=O)O)CC1", "note": "[Compound 13-30]", "values": [
      {"measurement": "IC50", "setting": "[1]; [5]", "result": "> 10000", "unit": "nM"},
      {"measurement": "IC50", "setting": "[2]; [6]", "result": "> 10000", "unit": "nM"},
      {"measurement": "IC50", "setting": "[3]", "result": 0.15, "unit": "nM"},
      {"measurement": "EC50", "setting": "[4]", "result": 4.77, "unit": "nM"}
    ]},
    {"smiles": "CCOC(=O)C(=O)NC1CCN(C(=O)[C@@H](CCCCN)NC(=O)[C@@H](CC(C)C)NC(=O)[C@@H](Cc2ccccc2)NC(=O)[C@H](N)Cc2ccccc2)CC1", "note": "[Compound 13-31]", "values": [
      {"measurement": "IC50", "setting": "[1]; [5]", "result": 172, "unit": "nM"},
      {"measurement": "IC50", "setting": "[2]; [6]", "result": "> 10000", "unit": "nM"},
      {"measurement": "IC50", "setting": "[3]", "result": 0.28, "unit": "nM"},
      {"measurement": "EC50", "setting": "[4]", "result": 17.9, "unit": "nM"}
    ]},
    {"smiles": "CNC(=O)C(=O)N1CCC(NC(=O)[C@@H](CCCCN)NC(=O)[C@@H](CC(C)C)NC(=O)[C@@H](Cc2ccccc2)NC(=O)[C@H](N)Cc2ccccc2)CC1", "note": "[Compound 13-32]", "values": [
      {"measurement": "IC50", "setting": "[1]", "result": 7110, "unit": "nM"},
      {"measurement": "IC50", "setting": "[2]", "result": "> 10000", "unit": "nM"},
      {"measurement": "IC50", "setting": "[3]", "result": 8.49, "unit": "nM"},
      {"measurement": "EC50", "setting": "[4]", "result": 26.5, "unit": "nM"}
    ]},
    {"smiles": "CC(C)C[C@@H](NC(=O)[C@@H](Cc1ccccc1)NC(=O)[C@H](N)Cc1ccccc1)C(=O)N[C@H](CCCCN)C(=O)NC1CCN(C(=O)C(N)=O)CC1", "note": "[Compound 13-34]", "values": [
      {"measurement": "IC50", "setting": "[1]; [5]", "result": 2980, "unit": "nM"},
      {"measurement": "IC50", "setting": "[2]; [6]", "result": "> 10000", "unit": "nM"},
      {"measurement": "IC50", "setting": "[3]", "result": 3.33, "unit": "nM"},
      {"measurement": "EC50", "setting": "[4]", "result": 20.2, "unit": "nM"}
    ]}
  ]
}
